Measured values: paper PMC12621043, “Un-LOK-ing a New Approach for Conformational Selective Targeting of STK10 (LOK)” (ACS Medicinal Chemistry Letters, 2025)

Key:
[1] = target: T1, SRPK1A (Homo sapiens, UniProt Q96SB4); test: DSF Tm panel; format: binding; details: 10 μM compound
T1 construct: purchased in-house DSF kinase panel (SGC-style construct names; the trailing letter is the construct ID)

[2] = target: T2, ABL1 (ABL1A) (Homo sapiens, UniProt P00519); test: DSF Tm panel; format: binding; details: 10 μM compound
T2 construct: purchased in-house DSF kinase panel (SGC-style construct names; the trailing letter is the construct ID)
T2 sequence (P00519 229-512): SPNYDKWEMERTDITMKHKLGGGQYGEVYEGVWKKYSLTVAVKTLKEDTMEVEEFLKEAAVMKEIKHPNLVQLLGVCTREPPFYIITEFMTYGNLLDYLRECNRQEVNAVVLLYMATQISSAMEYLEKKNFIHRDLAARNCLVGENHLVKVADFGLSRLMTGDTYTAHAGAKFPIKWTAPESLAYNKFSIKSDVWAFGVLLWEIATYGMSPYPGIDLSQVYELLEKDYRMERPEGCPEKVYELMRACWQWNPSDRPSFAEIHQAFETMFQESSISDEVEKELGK

[3] = target: T3, STK4 (STK4A) (Homo sapiens, UniProt Q13043); test: DSF Tm panel; format: binding; details: 10 μM compound
T3 construct: purchased in-house DSF kinase panel (SGC-style construct names; the trailing letter is the construct ID)
T3 sequence (Q13043 1-311): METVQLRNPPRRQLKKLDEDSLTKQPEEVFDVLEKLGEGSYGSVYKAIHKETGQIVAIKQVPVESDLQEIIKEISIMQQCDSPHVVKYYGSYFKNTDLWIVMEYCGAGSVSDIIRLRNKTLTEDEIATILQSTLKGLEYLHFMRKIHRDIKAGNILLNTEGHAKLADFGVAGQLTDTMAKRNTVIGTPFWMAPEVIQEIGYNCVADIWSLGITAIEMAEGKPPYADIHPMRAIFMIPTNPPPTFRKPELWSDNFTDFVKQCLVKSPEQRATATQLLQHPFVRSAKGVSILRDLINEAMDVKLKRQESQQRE

[4] = target: T4, FESA (Homo sapiens, UniProt P07332); test: DSF Tm panel; format: binding; details: 10 μM compound
T4 construct: purchased in-house DSF kinase panel (SGC-style construct names; the trailing letter is the construct ID)
T4 sequence (P07332 whole entry): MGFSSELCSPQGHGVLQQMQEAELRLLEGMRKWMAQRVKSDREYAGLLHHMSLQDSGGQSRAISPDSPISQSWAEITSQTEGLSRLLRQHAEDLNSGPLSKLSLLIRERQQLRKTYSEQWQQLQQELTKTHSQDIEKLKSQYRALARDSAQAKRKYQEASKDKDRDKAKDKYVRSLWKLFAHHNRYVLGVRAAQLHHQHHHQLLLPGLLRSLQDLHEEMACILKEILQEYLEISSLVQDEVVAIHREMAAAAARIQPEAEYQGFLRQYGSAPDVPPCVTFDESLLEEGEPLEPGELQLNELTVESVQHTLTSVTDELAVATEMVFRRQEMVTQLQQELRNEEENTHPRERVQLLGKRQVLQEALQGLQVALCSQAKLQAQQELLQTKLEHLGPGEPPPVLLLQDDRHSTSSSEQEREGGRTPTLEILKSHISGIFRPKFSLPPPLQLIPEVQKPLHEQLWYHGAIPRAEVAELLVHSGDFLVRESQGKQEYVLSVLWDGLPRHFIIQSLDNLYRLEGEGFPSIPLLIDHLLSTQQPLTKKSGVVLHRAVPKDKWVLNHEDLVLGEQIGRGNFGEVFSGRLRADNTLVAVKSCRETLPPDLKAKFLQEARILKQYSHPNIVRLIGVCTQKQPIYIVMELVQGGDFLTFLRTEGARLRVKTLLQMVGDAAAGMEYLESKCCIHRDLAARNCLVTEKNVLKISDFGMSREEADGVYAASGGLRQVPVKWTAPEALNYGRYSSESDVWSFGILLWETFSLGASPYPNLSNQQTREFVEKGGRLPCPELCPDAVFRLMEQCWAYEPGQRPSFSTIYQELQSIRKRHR

[5] = system: RPS6KA1A; test: DSF Tm panel; format: binding; details: 10 μM compound
[6] = target: T5, VRK1A (Homo sapiens, UniProt Q99986); test: DSF Tm panel; format: binding; details: 10 μM compound
T5 construct: purchased in-house DSF kinase panel (SGC-style construct names; the trailing letter is the construct ID)
T5 sequence (Q99986 1-396): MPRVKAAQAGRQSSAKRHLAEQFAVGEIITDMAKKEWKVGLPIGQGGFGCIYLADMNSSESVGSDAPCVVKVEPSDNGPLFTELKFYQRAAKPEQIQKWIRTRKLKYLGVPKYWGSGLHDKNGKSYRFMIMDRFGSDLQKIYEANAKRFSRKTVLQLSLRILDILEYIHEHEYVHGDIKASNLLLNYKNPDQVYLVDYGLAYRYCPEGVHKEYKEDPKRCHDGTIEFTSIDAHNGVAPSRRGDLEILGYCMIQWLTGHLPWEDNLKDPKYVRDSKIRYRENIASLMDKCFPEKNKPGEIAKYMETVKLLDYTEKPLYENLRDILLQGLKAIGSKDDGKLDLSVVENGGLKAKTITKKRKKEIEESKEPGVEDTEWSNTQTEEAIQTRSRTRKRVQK

[7] = system: CDC42BPAA; test: DSF Tm panel; format: binding; details: 10 μM compound
[8] = target: T6, AKT3A (Homo sapiens, UniProt Q9Y243); test: DSF Tm panel; format: binding; details: 10 μM compound
T6 construct: purchased in-house DSF kinase panel (SGC-style construct names; the trailing letter is the construct ID)
T6 sequence (Q9Y243 148-479): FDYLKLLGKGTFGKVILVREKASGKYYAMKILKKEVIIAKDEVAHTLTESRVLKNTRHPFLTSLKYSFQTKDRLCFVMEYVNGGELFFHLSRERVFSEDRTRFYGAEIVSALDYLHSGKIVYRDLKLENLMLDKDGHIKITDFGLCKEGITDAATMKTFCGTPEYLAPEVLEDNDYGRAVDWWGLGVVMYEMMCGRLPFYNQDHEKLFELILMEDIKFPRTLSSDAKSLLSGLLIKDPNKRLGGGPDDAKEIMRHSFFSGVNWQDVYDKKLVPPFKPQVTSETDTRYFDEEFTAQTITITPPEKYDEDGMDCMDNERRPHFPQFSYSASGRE

[9] = target: T7, DAPK1 (DAPK1A) (Homo sapiens, UniProt P53355); test: DSF Tm panel; format: binding; details: 10 μM compound
T7 construct: purchased in-house DSF kinase panel (SGC-style construct names; the trailing letter is the construct ID)
T7 sequence (P53355 1-285): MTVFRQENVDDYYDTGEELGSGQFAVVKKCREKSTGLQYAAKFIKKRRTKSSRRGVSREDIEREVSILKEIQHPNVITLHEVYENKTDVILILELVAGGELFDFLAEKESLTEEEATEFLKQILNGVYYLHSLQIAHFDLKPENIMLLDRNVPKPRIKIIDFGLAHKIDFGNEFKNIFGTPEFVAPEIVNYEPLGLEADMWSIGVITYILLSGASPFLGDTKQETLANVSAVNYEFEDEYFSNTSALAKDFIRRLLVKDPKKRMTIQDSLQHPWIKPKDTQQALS

[10] = target: T8, MAPK13A (Homo sapiens, UniProt O15264); test: DSF Tm panel; format: binding; details: 10 μM compound
T8 construct: purchased in-house DSF kinase panel (SGC-style construct names; the trailing letter is the construct ID)
T8 sequence (O15264 1-365): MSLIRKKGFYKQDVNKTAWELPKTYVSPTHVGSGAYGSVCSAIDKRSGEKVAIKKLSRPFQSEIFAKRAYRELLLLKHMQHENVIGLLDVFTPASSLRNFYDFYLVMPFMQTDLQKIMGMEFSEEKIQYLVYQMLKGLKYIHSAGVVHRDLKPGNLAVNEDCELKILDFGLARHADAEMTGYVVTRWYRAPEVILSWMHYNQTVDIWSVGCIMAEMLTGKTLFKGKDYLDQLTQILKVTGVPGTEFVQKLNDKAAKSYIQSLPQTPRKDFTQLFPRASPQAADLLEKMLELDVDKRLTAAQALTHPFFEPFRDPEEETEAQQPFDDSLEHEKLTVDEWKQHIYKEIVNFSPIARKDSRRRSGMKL

[11] = target: T9, PCTK1A (Homo sapiens, UniProt Q00536); test: DSF Tm panel; format: binding; details: 10 μM compound
T9 construct: purchased in-house DSF kinase panel (SGC-style construct names; the trailing letter is the construct ID)
T9 sequence (Q00536 163-478): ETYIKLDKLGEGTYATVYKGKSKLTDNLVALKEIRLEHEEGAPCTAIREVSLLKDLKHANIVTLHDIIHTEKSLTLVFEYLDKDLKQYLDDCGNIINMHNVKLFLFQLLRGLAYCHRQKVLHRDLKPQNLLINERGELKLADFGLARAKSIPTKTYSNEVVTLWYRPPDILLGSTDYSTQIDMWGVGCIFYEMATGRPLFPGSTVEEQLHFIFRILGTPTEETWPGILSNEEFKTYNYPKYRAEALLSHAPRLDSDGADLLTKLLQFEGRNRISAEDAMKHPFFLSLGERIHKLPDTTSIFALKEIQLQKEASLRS

[12] = target: T10, UKL3A (ULK3A) (Homo sapiens, UniProt Q6PHR2); test: DSF Tm panel; format: binding; details: 10 μM compound
T10 construct: purchased in-house DSF kinase panel (SGC-style construct names; the trailing letter is the construct ID)
T10 sequence (Q6PHR2 1-279): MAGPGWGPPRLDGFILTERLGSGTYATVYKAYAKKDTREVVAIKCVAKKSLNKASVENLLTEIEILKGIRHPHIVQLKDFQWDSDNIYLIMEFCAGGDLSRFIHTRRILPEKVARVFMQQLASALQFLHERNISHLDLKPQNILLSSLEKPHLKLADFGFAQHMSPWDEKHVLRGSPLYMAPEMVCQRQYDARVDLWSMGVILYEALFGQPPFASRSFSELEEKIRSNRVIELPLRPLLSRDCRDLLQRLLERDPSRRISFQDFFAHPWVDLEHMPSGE

[13] = target: T11, MAP2K6A (Homo sapiens, UniProt P52564); test: DSF Tm panel; format: binding; details: 10 μM compound
T11 construct: purchased in-house DSF kinase panel (SGC-style construct names; the trailing letter is the construct ID)
T11 sequence (P52564 53-314): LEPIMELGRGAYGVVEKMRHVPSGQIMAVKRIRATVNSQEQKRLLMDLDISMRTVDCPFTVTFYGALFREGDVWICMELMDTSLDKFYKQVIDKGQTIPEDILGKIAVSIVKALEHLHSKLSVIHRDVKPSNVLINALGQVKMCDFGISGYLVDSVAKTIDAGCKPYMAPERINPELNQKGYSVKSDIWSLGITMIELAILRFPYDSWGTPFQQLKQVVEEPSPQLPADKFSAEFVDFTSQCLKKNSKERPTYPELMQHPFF

[14] = target: T12, CAMKK2B (Homo sapiens, UniProt Q96RR4); test: DSF Tm panel; format: binding; details: 10 μM compound
T12 construct: purchased in-house DSF kinase panel (SGC-style construct names; the trailing letter is the construct ID)
T12 sequence (Q96RR4 161-449): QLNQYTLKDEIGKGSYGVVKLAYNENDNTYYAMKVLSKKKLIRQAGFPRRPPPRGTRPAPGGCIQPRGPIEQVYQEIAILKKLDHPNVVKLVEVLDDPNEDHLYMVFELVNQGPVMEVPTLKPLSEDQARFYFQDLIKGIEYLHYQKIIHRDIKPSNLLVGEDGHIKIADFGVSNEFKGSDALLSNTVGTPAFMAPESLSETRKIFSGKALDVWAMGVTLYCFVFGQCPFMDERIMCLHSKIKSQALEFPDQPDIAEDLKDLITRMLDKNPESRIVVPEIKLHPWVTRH

[15] = target: T13, MARK3A (Homo sapiens, UniProt P27448); test: DSF Tm panel; format: binding; details: 10 μM compound
T13 construct: purchased in-house DSF kinase panel (SGC-style construct names; the trailing letter is the construct ID)
T13 sequence (P27448 56-307): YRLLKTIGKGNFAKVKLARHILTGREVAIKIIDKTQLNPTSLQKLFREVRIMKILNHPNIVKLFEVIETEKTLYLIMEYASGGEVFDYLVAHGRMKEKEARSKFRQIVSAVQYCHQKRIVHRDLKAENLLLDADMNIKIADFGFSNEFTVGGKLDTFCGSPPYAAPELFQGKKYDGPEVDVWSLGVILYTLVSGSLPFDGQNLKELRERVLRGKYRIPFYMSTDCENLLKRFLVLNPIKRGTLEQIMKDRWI

[16] = target: T14, EPHA7A (Homo sapiens, UniProt Q15375); test: DSF Tm panel; format: binding; details: 10 μM compound
T14 construct: purchased in-house DSF kinase panel (SGC-style construct names; the trailing letter is the construct ID)
T14 sequence (Q15375 590-899): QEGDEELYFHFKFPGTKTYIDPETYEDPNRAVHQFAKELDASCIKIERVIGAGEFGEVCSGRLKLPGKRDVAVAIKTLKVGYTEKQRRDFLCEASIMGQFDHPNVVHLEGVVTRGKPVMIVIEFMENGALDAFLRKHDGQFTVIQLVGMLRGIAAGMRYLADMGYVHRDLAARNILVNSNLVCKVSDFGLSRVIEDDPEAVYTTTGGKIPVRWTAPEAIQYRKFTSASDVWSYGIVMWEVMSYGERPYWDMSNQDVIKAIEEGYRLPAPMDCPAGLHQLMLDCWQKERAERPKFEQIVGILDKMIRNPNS

[17] = target: T15, MAPK1A (Homo sapiens, UniProt P28482); test: DSF Tm panel; format: binding; details: 10 μM compound
T15 construct: purchased in-house DSF kinase panel (SGC-style construct names; the trailing letter is the construct ID)
T15 sequence (P28482 whole entry): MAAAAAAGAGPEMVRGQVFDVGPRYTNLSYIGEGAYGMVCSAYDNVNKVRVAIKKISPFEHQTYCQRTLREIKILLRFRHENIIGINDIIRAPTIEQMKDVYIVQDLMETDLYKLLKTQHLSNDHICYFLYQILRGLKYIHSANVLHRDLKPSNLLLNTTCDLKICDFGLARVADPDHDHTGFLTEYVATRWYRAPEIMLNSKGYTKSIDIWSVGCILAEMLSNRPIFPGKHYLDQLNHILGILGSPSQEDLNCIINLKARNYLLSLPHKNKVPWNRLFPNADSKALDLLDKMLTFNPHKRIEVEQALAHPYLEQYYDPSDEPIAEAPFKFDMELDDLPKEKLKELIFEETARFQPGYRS

[18] = target: SLK (Homo sapiens, UniProt Q9H2G2); test: PhosphoSens in vitro activity assay; format: biochemical; details: ATP 150 μM
[19] = target: T16, CDK2A (Homo sapiens, UniProt P24941); test: DSF Tm panel; format: binding; details: 10 μM compound
T16 construct: purchased in-house DSF kinase panel (SGC-style construct names; the trailing letter is the construct ID)

T1 sequence (Q96SB4 80-653): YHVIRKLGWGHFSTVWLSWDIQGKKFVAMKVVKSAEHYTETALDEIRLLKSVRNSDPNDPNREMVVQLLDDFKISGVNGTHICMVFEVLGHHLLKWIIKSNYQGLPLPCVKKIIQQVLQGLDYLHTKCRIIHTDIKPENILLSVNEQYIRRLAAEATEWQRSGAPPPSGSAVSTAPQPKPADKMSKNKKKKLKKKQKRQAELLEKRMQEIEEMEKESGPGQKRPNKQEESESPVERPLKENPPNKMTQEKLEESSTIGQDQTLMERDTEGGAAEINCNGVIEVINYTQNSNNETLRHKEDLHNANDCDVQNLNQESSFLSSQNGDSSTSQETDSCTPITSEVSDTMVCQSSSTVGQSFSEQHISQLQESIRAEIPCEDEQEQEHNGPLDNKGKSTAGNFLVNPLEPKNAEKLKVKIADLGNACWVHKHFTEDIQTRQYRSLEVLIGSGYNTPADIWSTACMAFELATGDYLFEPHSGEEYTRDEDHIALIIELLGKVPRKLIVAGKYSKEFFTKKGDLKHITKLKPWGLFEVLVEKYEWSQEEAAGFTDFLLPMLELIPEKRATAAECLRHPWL

| Compound | ΔTm at 10 µM [1] [°C] | ΔTm at 10 µM [2] [°C] | ΔTm at 10 µM [3] [°C] | ΔTm at 10 µM [4] [°C] | ΔTm RPS6KA1A [5] | ΔTm at 10 µM [6] [°C] | ΔTm CDC42BPAA [7] | ΔTm at 10 µM [8] [°C] | ΔTm at 10 µM [9] [°C] | ΔTm at 10 µM [10] [°C] | ΔTm at 10 µM [11] [°C] | ΔTm at 10 µM [12] [°C] | ΔTm at 10 µM [13] [°C] | ΔTm at 10 µM [14] [°C] | ΔTm at 10 µM [15] [°C] | ΔTm at 10 µM [16] [°C] | ΔTm at 10 µM [17] [°C] | IC50 [18] [µM] | ΔTm at 10 µM [19] [°C] |
| --- | --- | --- | --- | --- | --- | --- | --- | --- | --- | --- | --- | --- | --- | --- | --- | --- | --- | --- | --- |
| Cc1cc(Cl)ccc1CNC(=O)Nc1ccc2cc1OCCOCCNc1ccn3ncc-2c3n1 [compound 23] | 0.2 | 1.7 | 7.4 | 0.5 | 0,8 °C | 0.8 | 0,6 °C | 0.9 | 0.1 | 0.3 | 2.8 | 3.7 | 0.4 | 1.9 | 2.4 | 1 | 0.8 | 3.43 ± 1.12 | 3.1 |
| Cc1cc(Br)ccc1CNC(=O)Nc1ccc2cc1OCCOCCNc1ccn3ncc-2c3n1 [compound 24] | -0.2 | -0.4 | 2.8 | 0.5 | 0,1 °C | 1 | 0,7 °C | 0.3 | -0.3 | -0.4 | 0.7 | 3.7 | 0.6 | 0.7 | 0.8 | 2 | 0.7 | 5.35 ± 1.36 | 1.6 |
| Cc1ccc(F)cc1CNC(=O)Nc1ccc2cc1OCCOCCNc1ccn3ncc-2c3n1 [compound 26] | 0 | 0.6 | 3.1 | 0.3 | 0,3 °C | 0.5 | 0,2 °C | 1.8 | 0.2 | -0.2 | 1 | 3.9 | 0.7 | 0.9 | 0.2 | 2 | 0.8 | 9.8 ± 2.41 | 2.3 |
| O=C(NCc1ccccc1C(F)(F)F)Nc1ccc2cc1OCCOCCNc1ccn3ncc-2c3n1 [compound 27] | -0.1 | 2.4 | 3.8 | 0.7 | 0,2 °C | 0.4 | 1,0 °C | -0.1 | 0.1 | -0.5 | 1.1 | 4.5 | 1.2 | 1.5 | 1.4 | 3 | 0.9 | 2.74 ± 0.89 | 1.9 |
| COc1ccccc1CNC(=O)Nc1ccc2cc1OCCOCCNc1ccn3ncc-2c3n1 [compound 29] | 0.2 | 0.7 | 2.6 | 2 | 0,5 °C | 0 | 0,3 °C | 0.3 | -0.1 | 0.02 | 1 | 4.2 | 0.7 | 1.5 | -0.1 | 1.1 | 0.7 | 17.1 ± 2.86 | 1.7 |
| COc1cccc(CNC(=O)Nc2ccc3cc2OCCOCCNc2ccn4ncc-3c4n2)c1 [compound 30] | 0.1 | 1.5 | 3 | 1.4 | 0,6 °C | 0.3 | 0,2 °C | 0.2 | 0.1 | -0.1 | 1.3 | 4.4 | 0.9 | 2 | -0.3 | 1.5 | 0.6 | > 20 | 2.5 |
| COc1ccc(CNC(=O)Nc2ccc3cc2OCCOCCNc2ccn4ncc-3c4n2)cc1F [compound 32] | 0 | 1.7 | 4.4 | 0.8 | 0,8 °C | 0.2 | 0,1 °C | 0.8 | 0.4 | -0.3 | 2 | 5.9 | 1 | 1.8 | 0.5 | 2.9 | 0.7 | 11 ± 2.68 | 3.4 |
| COc1cc(CNC(=O)Nc2ccc3cc2OCCOCCNc2ccn4ncc-3c4n2)ccc1F [compound 33] | 0 | 1.5 | 3.8 | 0.5 | 0,5 °C | 0.3 | 0,1 °C | 0.9 | 0.5 | -0.3 | 1.7 | 4.5 | 1.1 | 3.2 | 0.3 | 1.9 | 1.6 | > 20 | 2.7 |
| C[C@H](NC(=O)Nc1ccc2cc1OCCOCCNc1ccn3ncc-2c3n1)c1ccccc1 [compound 34] | -0.1 | 1.3 | 2.7 | 1.3 | 0,4 °C | 0 | 0,1 °C | 0.4 | 0.5 | -0.3 | 0.5 | 4.1 | 0.8 | 0.6 | 0 | 1.9 | 0.7 | > 20 | 1 |
